This is an account of results in article PMC9505254 (Pathogens, 2022).

For data set [1], the system named is S. aureus (ATCC 25923) biofilm. The experiment in a line: Inhibition of biofilm formation (crystal violet). In kind it is cell-based. Conditions: Staphylococcus aureus, ATCC25923, alone at 0.2 µg mL−1, 48 h, 37 °C, A600, triplicate. The method, then: The assay was made in flat-bottom 96-well polystyrene microplates as described by Bezerra et al.. The cell suspension was prepared using a single colony of S. aureus from a Petri dish with Mueller–Hinton broth (stock bacteria). The colony was transferred to Mueller–Hinton broth and incubated at 37 ℃ for 24 h. After, the cell suspension was standardized to a concentration of 10^6 cells mL^−1. […] The combination of peptide and antibiotic was made from the highest concentration of the peptide combined with the lowest antibiotic concentration and vice versa. After the incubation period, the supernatant was removed carefully from each well and washed one time with sterile NaCl 0.15 M solution. […] The absorbances were obtained via a microplate reader (BioTek^TM Epoch, BioTek Instruments, Inc., Winooski, VT, USA) at 600 nm. The experiment was repeated three times.

The test system of data set [2] is S. aureus (ATCC 25923) preformed biofilm. The experiment in a line: Reduction of preformed biofilm mass (crystal violet). In kind it is cell-based, Staphylococcus aureus. The method, then:
After the incubation period, the supernatant was removed carefully from each well and washed one time with sterile NaCl 0.15 M solution. […] The absorbances were obtained via a microplate reader (BioTek^TM Epoch, BioTek Instruments, Inc., Winooski, VT, USA) at 600 nm. The experiment was repeated three times. The assay to observe the preformed biofilm reduction was conducted the same as described above but with some adjustments. […] The microplates were incubated in the dark, at 37 ℃, for 24 h. After incubation, the biofilm was washed, dried, and stained, and absorbance was taken as above.

Data set [3] deals with S. aureus biofilm cells. The data set is described as follows: ROS overproduction (DCFH-DA, fluorescence microscopy). Particulars: ciprofloxacin alone at 6.2, 0.2, 25 or 0.02 µg mL−1 (Figures 4 and 5).
Procedure: The ROS overproduction was determined following the method described by Bezerra et al. [13]. The assays were conducted as the same for PI analysis. Then, 20 μL of 2',7' […] diacetate (DCFH-DA, Sigma, St. Louis, MI, USA) was added and incubated in the dark for 30 min at 24 °C. Finally, the biofilms were washed with 0.15 M NaCl and observed under a fluorescence microscope (Olympus System BX 41, Tokyo, Japan) with an excitation wavelength of 488 nm and an emission wavelength of 525 nm.
In data set [4] the test system is type-A human erythrocytes.
For data set [5], the system named is type-B human erythrocytes.
Data set [6] deals with type-O human erythrocytes.

Entries after “also recorded” stand apart in the source; their conditions may differ.

One may read the inhibition as the change of the read-out against control, counted positive when it falls. On to `O=C(O)c1cn(C2CC2)c2cc(N3CCNCC3)c(F)cc2c1=O` [Ciprofloxacin], for which the inhibition at 0.2 µg/mL in data set [1] was found to be 10%. Also, the “reduction of preformed biofilm” value was found to be 0% in data set [2] (alone at 6.2 µg mL−1, 24 h biofilm, 24 h treatment, 37 °C, crystal violet, A600) and 8% in data set [2] (alone at 25 µg mL−1). The “reduction of the biomass of preformed biofilm” value is recorded as “not effective” in data set [2] (ciprofloxacin alone at the Figure 1D concentrations (0.02, 0.39, 0.78, 6.2 µg mL−1)); “not effective” in data set [2] (each alone at the concentrations of the two Figure 1C combinations (RcAlb-PepI 0.04 and 0.2; ciprofloxacin 25 and 6.2 µg mL−1)). For the same compound, the ROS overproduction entry in data set [3] is listed as “did not induce ROS; also recorded: not able to induce ROS accumulation”.

As to Triton X-100, the “% Hemolysis Type-A Blood” value in data set [4] is recorded as 100 ± 0.001%. In data set [5], the “% Hemolysis Type-B Blood” value is listed as 100 ± 0.001%. Also, the “% Hemolysis Type-O Blood” value in data set [6] amounted to 100 ± 0.005%.
